Assay results published in US20180327354A1, “Unnatural Analogues of Calcitriol and Uses Thereof” (Vidasym, Inc., priority 2009, published 2018).
“Also recorded” adds a separate entry of the source.

Legend:
thrombospondin-1 = assay: Thrombospondin-1 protein in human coronary artery smooth muscle cells (Western blot); format: cell-based; settings: HCASMC, 48 h, FIG. 21A
Method: (§1) Human coronary artery smooth muscle cells (HCASM) were incubated with Vida-5 or Vida-11 at different concentrations for 48 h and then were solubilized in 50 al of SDS-PAGE sample buffer. The protein content in each sample was determined by the bicinchoninic acid protein assay. Samples were resolved by SDS-PAGE using a 4-12% NuPAGE gel, and proteins were electrophoretically transferred to polyvinylidene fluoride membrane for Western blotting. The membrane was blocked for 1 h at 25° C. with 5% nonfat dry milk in phosphate buffered saline Tween-20 (PBS-T) and then incubated with a mouse anti-thrombospondin-1 monoclonal antibody (2,000-fold dilution), or a mouse anti-TM monoclonal antibody (2,000-fold dilution) in PBS-T overnight at 4° C.
(§2) The membrane was washed with PBS-T and incubated with a horseradish peroxidase-labeled anti-mouse antibody for 1 h at 25° C. The membrane was then incubated with Amersham ECL Plus Western Blotting Detection Reagents. Specific bands were visualized by the Multiimage II of Alpha Innotech imaging system. Band intensity was quantified using Spot Denso.

thrombomodulin = assay: Thrombomodulin protein in human coronary artery smooth muscle cells (Western blot); format: cell-based; settings: HCASMC, 48 h, FIG. 21B
Method: as §1, §2

[1] = tested on: 5/6 nephrectomized uremic rats; assay: Left ventricular hypertrophy in 5/6 nephrectomized uremic rats; format: in vivo, Sprague Dawley rats; settings: 5/6 NX rats, 0.16 and 0.64 μg/kg, LVH study

| SMILES | thrombospondin-1 protein expression (thrombospondin-1) | thrombomodulin protein expression (thrombomodulin) | effect on serum Ca [1] |
| --- | --- | --- | --- |
| C=C1[C@H](O)CC(=C/C=C2\CCCC3(C)C2CCC3[C@@H](C)OC[C@H](C)C(C)(C)O)C[C@H]1O (stereo partly drawn) [Vida-5, (1R,3R)-5-((E)-2-((3αS,7αS)-1-((R)-1-((S)-3-hydroxy-2,3-dimethylbutoxy)ethyl)-7α-methyldihydro-1H-inden-4(2H,5H,6H, 7H, 7αH)-ylidene)ethylidene)-2-methylenecyclohexane-1,3-diol] | suppress; also recorded: significantly reduced | induce; also recorded: increased | – |
| CCC(O)(CC)CCO[C@H](C)C1CCC2/C(=C/C=C3C[C@@H](O)C4(CC4)[C@H](O)C3)CCCC21C (stereo partly drawn) [Vida-10, (4R,8R)-6-((E)-2-((1S,7αS)-1-((R)-1-(3-ethyl-3-hydroxypentyloxy)ethyl)-7α-methyldihydro-1H-inden-4(2H,5H,6H,7H,7αH)-ylidene)ethylidene)spiro[2.5]octane-4,8-diol] | – | – | no effect |
